In patent publication US20250122183A1 (Pfizer Inc., priority 2023, published 2025) one finds Ki data, which are given here for 18 compounds.

Read-outs that look alike come from different tables or passages of the source.

What all share (format): biochemical
Common to all, as to details: replicate number in parentheses

Test [1] deals with KAT6A Full length enzyme (Homo sapiens (Human), UniProt Q92794). Put plainly: KAT6A assay (SAMDI-MS acetylation of H3 1-21 peptide).
Test [2] has as its target KAT7+JADE1+EAF6+ING5 4 protein complex (Homo sapiens (Human), UniProt O95251). Put plainly: KAT7 JADE1 assay (SAMDI-MS acetylation of H3 1-21 peptide).
The target of test [3] is KAT7+BRPF2+EAF6+ING5 4 protein complex (Homo sapiens (Human), UniProt O95251). Briefly: KAT7 BRPF2 assay (SAMDI-MS acetylation of H3 1-21 peptide).
Test [4] addresses KAT8 Full length enzyme (Homo sapiens (Human), UniProt Q9H7Z6). Briefly: KAT8 assay (SAMDI-MS acetylation of H3 1-21 peptide).
The target in test [5] is KAT5 Full length enzyme (Homo sapiens (Human), UniProt Q92993). Briefly: KAT5 assay (SAMDI-MS acetylation of H4 1-21 peptide).
Where [6] appears, read: Morrison equation fit, read-out: KAT6A Ki (nM) (replicate number).
Setting [7] is: Morrison equation fit, read-out: KAT7 JADE1 Ki (nM) (replicate number).
Setting [8] is: Morrison equation fit, read-out: KAT7 BRPF2 Ki (nM) (replicate number).
Setting [9] is: Morrison equation fit, read-out: KAT8 Ki (nM) (replicate number).
Setting [10] is: Morrison equation fit, read-out: KAT5 Ki (nM) (replicate number).
The mark [11] stands for this setting: read-out: KAT6A Ki (nM) (replicate).
[12] abbreviates: read-out: KAT7 JADE1 Ki (nM) (replicate).
Where [13] appears, read: read-out: KAT7 BRPF2 Ki (nM) (replicate).

KAT5 Full length enzyme, sequence (Q92993 whole entry): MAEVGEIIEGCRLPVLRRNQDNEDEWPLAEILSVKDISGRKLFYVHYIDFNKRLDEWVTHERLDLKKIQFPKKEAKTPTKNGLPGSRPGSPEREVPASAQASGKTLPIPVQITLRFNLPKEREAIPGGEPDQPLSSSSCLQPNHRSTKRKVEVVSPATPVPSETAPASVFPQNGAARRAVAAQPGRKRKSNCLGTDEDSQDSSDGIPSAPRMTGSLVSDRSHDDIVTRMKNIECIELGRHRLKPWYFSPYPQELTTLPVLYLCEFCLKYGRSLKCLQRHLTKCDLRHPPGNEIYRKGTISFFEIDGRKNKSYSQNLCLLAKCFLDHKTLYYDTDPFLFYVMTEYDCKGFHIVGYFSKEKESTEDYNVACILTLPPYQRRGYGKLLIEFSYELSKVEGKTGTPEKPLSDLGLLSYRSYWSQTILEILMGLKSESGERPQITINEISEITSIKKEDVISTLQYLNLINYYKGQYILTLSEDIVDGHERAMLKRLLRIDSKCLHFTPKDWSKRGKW
KAT6A Full length enzyme, sequence (Q92794 other isoform, or with tags, fused parts or gaps): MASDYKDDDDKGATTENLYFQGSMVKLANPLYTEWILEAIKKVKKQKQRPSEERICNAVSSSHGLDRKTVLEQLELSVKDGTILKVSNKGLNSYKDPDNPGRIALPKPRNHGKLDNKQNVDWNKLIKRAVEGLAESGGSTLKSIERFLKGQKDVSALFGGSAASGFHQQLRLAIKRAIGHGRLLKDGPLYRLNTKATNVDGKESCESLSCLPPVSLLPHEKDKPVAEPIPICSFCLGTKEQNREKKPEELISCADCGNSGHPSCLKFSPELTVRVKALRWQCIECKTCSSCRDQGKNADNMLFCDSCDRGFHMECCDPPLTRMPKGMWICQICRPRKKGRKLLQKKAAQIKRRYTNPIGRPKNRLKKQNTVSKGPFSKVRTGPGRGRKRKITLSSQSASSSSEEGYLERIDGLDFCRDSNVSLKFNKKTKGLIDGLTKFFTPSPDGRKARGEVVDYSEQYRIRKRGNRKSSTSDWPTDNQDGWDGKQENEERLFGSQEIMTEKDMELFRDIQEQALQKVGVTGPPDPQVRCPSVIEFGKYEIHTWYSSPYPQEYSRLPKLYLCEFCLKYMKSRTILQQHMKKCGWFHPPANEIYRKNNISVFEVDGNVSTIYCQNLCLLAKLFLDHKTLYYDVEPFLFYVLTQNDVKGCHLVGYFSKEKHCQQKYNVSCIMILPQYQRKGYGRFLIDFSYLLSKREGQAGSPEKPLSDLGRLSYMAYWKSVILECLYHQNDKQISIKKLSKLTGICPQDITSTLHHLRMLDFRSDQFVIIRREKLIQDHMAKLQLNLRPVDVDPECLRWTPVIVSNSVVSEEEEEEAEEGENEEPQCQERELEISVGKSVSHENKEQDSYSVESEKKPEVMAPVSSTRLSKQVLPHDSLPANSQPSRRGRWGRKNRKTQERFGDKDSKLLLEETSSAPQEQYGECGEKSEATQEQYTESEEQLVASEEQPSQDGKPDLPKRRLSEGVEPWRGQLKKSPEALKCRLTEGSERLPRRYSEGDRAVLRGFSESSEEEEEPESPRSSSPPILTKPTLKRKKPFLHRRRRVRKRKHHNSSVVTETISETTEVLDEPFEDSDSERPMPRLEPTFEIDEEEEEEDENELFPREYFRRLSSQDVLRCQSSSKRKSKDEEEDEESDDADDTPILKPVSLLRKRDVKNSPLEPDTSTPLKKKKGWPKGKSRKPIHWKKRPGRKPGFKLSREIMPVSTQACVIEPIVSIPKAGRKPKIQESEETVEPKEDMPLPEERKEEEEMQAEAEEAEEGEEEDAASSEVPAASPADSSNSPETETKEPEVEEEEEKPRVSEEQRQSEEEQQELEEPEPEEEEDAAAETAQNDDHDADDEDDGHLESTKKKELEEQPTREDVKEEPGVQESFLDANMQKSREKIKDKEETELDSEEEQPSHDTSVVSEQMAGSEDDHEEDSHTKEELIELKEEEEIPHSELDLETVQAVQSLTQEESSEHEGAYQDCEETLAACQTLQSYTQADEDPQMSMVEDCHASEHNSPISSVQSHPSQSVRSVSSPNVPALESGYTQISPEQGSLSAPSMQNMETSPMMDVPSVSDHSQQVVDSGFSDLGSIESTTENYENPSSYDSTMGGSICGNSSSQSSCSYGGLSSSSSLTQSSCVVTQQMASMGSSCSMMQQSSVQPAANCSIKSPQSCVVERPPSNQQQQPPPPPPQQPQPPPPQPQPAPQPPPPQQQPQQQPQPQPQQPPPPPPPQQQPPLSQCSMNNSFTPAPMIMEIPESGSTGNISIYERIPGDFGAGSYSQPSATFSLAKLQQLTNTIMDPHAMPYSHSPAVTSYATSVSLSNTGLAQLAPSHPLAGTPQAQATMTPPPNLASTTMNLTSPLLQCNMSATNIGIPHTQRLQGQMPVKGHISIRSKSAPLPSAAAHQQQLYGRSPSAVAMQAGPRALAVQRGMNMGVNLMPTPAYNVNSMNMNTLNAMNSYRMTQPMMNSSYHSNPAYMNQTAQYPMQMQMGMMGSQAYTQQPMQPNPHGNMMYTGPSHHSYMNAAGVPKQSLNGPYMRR
KAT8 Full length enzyme, sequence (Q9H7Z6 whole entry): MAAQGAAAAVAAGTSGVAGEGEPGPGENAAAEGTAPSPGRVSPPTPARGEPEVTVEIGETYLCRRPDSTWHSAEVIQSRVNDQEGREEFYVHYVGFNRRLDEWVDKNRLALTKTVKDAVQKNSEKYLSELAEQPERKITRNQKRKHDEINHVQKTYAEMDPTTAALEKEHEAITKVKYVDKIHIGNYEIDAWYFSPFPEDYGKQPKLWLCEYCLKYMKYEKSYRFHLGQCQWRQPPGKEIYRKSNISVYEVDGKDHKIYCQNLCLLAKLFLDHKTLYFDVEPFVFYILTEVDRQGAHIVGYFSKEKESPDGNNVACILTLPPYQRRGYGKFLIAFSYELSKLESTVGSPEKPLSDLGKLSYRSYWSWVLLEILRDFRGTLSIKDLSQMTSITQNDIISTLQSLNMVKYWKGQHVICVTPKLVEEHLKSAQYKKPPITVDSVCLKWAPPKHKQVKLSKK

As to `COc1cc2c(NS(=O)(=O)c3c(OC)cc(C4COCC(C)(C)O4)cc3OC)noc2cc1Nc1cc(C2CC2)n[nH]1` (single isomer, unassigned) [Example 183, N-{6-[(3-cyclopropyl-1 H-pyrazol-5-yl)amino]-5-methoxy-1,2-benzoxazol-3-yl}-4-(6,6-dimethyl-1,4-dioxan-2-yl)-2,6-dimethoxybenzene-1-sulfonamide], the Ki (commonly a dissociation constant, usually derived from enzyme kinetics or from competition with a known ligand) was determined as 2.1 nM in test [1] (setting [6]), 5.7 nM in test [2] (setting [7]) and 2.1 nM in test [3] (setting [8]).
With `COc1cc2c(NS(=O)(=O)c3c(OC)cc(C4COCC(C)(C)O4)cc3OC)noc2cc1Nc1cc(C2CC2)n[nH]1` (single isomer, unassigned) [Example 184, N-{6-[(3-cyclopropyl-1 H-pyrazol-5-yl)amino]-5-methoxy-1,2-benzoxazol-3-yl}-4-(6,6-dimethyl-1,4-dioxan-2-yl)-2,6-dimethoxybenzene-1-sulfonamide], the Ki in test [1] (setting [6]) amounted to 1.8 nM; in test [4] (setting [9]) it was 1030 nM; in test [5] (setting [10]) it was 60.7 nM; in test [2] (setting [7]), 4.7 nM; in test [3] (setting [8]), 1.6 nM.
Take `COc1cc2c(NS(=O)(=O)c3c(OC)cc(C4COC(C)(C)CO4)cc3OC)noc2cc1Nc1cc(C2CC2)n[nH]1` (single isomer, unassigned) [Example 185, N-{6-[(3-cyclopropyl-1 H-pyrazol-5-yl)amino]-5-methoxy-1,2-benzoxazol-3-yl}-4-(5,5-dimethyl-1,4-dioxan-2-yl)-2,6-dimethoxybenzene-1-sulfonamide]: the Ki in test [1] (setting [6]) was 0.3 nM; in test [4] (setting [9]), 1220 nM; in test [5] (setting [10]), 1 nM; in test [2] (setting [7]) it was 1.8 nM; in test [3] (setting [8]), 0.9 nM.
`COc1cc2c(NS(=O)(=O)c3c(OC)cc(C(C)N4CCOCC4)cc3OC)noc2cc1Nc1cc(C2CC2)n[nH]1` (single isomer, unassigned) [Example 207, N-{6-[(3-cyclopropyl-1 H-pyrazol-5-yl)amino]-5-methoxy-1,2-benzoxazol-3-yl}-2,6-dimethoxy-4-[1-(morpholin-4-yl)ethyl]benzene-1-sulfonamide]: the values for the inhibition constant Ki in test [1] (setting [6]), in test [2] (setting [7]) and in test [3] (setting [8]) were 2.3 nM, 11.5 nM and 4 nM, respectively.
For the compound `COc1cc2c(NS(=O)(=O)c3c(OC)cc([C@@H]4CCCO4)cc3OC)noc2cc1Nc1cc(C2CC2)n[nH]1` [Example 140, N-{6-[(3-cyclopropyl-1H-pyrazol-5-yl)amino]-5-methoxy-1,2-benzoxazol-3-yl}-2,6-dimethoxy-4-[(2S)-oxolan-2-yl]benzene-1-sulfonamide], the Ki in test [1] (setting [6]) came to 1.5 nM; in test [4] (setting [9]) it was 911 nM; in test [5] (setting [10]) it was 156 nM; in test [2] (setting [7]), 11.4 nM.
On the same counts, the results for `COc1cc2c(NS(=O)(=O)c3c(OC)cc([C@H]4CCCO4)cc3OC)noc2cc1Nc1cc(C2CC2)n[nH]1` [Example 141, N-{6-[(3-cyclopropyl-1 H-pyrazol-5-yl)amino]-5-methoxy-1,2-benzoxazol-3-yl}-2,6-dimethoxy-4-[(2R)-oxolan-2-yl]benzene-1-sulfonamide] are 1 nM, 762 nM, 134 nM and 6.9 nM.
As for `COc1cc2c(NS(=O)(=O)c3c(OC)cc(CN4CC(F)C4)cc3OC)noc2cc1Nc1cc(C2CC2)n[nH]1` [Example 202, N-{6-[(3-cyclopropyl-1H-pyrazol-5-yl)amino]-5-methoxy-1,2-benzoxazol-3-yl}-4-[(3-fluoroazetidin-1-yl)methyl]-2,6-dimethoxybenzene-1-sulfonamide], the inhibition constant (Ki) in test [1] (setting [6]) is 0.7 nM; in test [4] (setting [9]), 844 nM; in test [5] (setting [10]) it was 25.4 nM; in test [2] (setting [7]), 5.2 nM.
On the same counts, the results for `COc1cc2c(NS(=O)(=O)c3c(OC)cc(-c4ncccn4)cc3OC)noc2cc1Nc1cc(C2CC2)n[nH]1` [Example 211, N-{6-[(3-cyclopropyl-1 H-pyrazol-5-yl)amino]-5-methoxy-1,2-benzoxazol-3-yl}-2,6-dimethoxy-4-(pyrimidin-2-yl)benzene-1-sulfonamide] are 1.1 nM, 1350 nM, 89.4 nM and 3.7 nM.
On the same counts, the results for `COc1cc2c(NS(=O)(=O)c3c(OC)cc(-c4cnn(C)n4)cc3OC)noc2cc1Nc1cc(C2CC2)n[nH]1` [Example 212, N-{6-[(3-cyclopropyl-1 H-pyrazol-5-yl)amino]-5-methoxy-1,2-benzoxazol-3-yl}-2,6-dimethoxy-4-(2-methyl-2H-1,2,3-triazol-4-yl)benzene-1-sulfonamide] are 0.7 nM, 1410 nM, 159 nM and 11.1 nM.
With `COc1cc2c(NS(=O)(=O)c3c(OC)cc(-c4ncc(CN(C)C)cn4)cc3OC)noc2cc1Nc1cc(C2CC2)n[nH]1` [Example 223, N-{6-[(3-cyclopropyl-1H-pyrazol-5-yl)amino]-5-methoxy-1,2-benzoxazol-3-yl}-4-{5-[(dimethylamino)methyl]pyrimidin-2-yl}-2,6-dimethoxybenzene-1-sulfonamide], the Ki amounted to 0.4 nM in test [1] (setting [6]), 679 nM in test [4] (setting [9]), 25.4 nM in test [5] (setting [10]) and 4 nM in test [2] (setting [7]).
Consider `COc1cc2c(NS(=O)(=O)c3c(OC)cc(-c4nccc(C(C)N(C)C)n4)cc3OC)noc2cc1Nc1cc(C2CC2)n[nH]1` (centres unmarked) [Example 227, N-{6-[(3-cyclopropyl-1 H-pyrazol-5-yl)amino]-5-methoxy-1,2-benzoxazol-3-yl}-4-{4-[1-(dimethylamino)ethyl]pyrimidin-2-yl}-2,6-dimethoxybenzene-1-sulfonamide], for which the Ki worked out at 0.4 nM in test [1] (setting [6]), 3490 nM in test [4] (setting [9]), 218 nM in test [5] (setting [10]) and 6.9 nM in test [2] (setting [7]).
`CCc1cc(Nc2cc3onc(NS(=O)(=O)c4c(OC)cc(-c5ccn(C)n5)cc4OC)c3cc2OC)[nH]n1` [Example 230, N-{6-[(3-ethyl-1H-pyrazol-5-yl)amino]-5-methoxy-1,2-benzoxazol-3-yl}-2,6-dimethoxy-4-(1-methyl-1 H-pyrazol-3-yl)benzene-1-sulfonamide]: the Ki in test [1] (setting [6]) amounted to 1 nM; in test [4] (setting [9]) it was 1960 nM; in test [5] (setting [10]), 158 nM; in test [2] (setting [7]), 2.3 nM.
Regarding `COc1cc2c(NS(=O)(=O)c3c(OC)cc(-n4ncccc4=O)cc3OC)noc2cc1Nc1cc(C2CC2)n[nH]1` [Example 243, N-{6-[(3-cyclopropyl-1 H-pyrazol-5-yl)amino]-5-methoxy-1,2-benzoxazol-3-yl}-2,6-dimethoxy-4-(6-oxopyridazin-1(6H)-yl)benzene-1-sulfonamide], the Ki in test [1] (setting [6]) was 1.5 nM; in test [4] (setting [9]) it was 872 nM; in test [5] (setting [10]) it was 168 nM; in test [2] (setting [7]), 16.9 nM.
As for `COc1cc2c(NS(=O)(=O)c3c(OC)cc(N(C)C4CCOC4)cc3OC)noc2cc1Nc1cc(C2CC2)[nH]n1` (centres unmarked) [Example 247, N-{6-[(3-cyclopropyl-1H-pyrazol-5-yl)amino]-5-methoxy-1,2-benzoxazol-3-yl}-2,6-dimethoxy-4-[methyl(oxolan-3-yl)amino]benzene-1-sulfonamide], the inhibition constant (Ki) in test [1] (setting [11]) was 0.5 nM; in test [2] (setting [12]), 2.7 nM; in test [3] (setting [13]), 1.7 nM.
As for `COc1cc2c(NS(=O)(=O)c3c(OC)cc(N(C)C4COC4)cc3OC)noc2cc1Nc1cc(C2CC2)n[nH]1` [Example 248, N-{6-[(3-cyclopropyl-1H-pyrazol-5-yl)amino]-5-methoxy-1,2-benzoxazol-3-yl}-2,6-dimethoxy-4-[methyl(oxetan-3-yl)amino]benzene-1-sulfonamide], the Ki in test [1] (setting [11]) amounted to 1.2 nM; in test [2] (setting [12]), 5.8 nM; in test [3] (setting [13]), 2.6 nM.
On the same counts, the results for `COc1cc2c(NS(=O)(=O)c3c(OC)cc(N4CC[C@@H](OC)C4)cc3OC)noc2cc1Nc1cc(C2CC2)n[nH]1` [Example 250, N-{6-[(3-cyclopropyl-1H-pyrazol-5-yl)amino]-5-methoxy-1,2-benzoxazol-3-yl}-2,6-dimethoxy-4-[(3R)-3-methoxypyrrolidin-1-yl]benzene-1-sulfonamide] are 0.2 nM, 1.3 nM and 0.9 nM.
The corresponding values for `COc1cc2c(NS(=O)(=O)c3c(OC)cc(N4C(=O)CCC4(C)C)cc3OC)noc2cc1Nc1cc(C2CC2)n[nH]1` [Example 256, N-{6-[(3-cyclopropyl-1H-pyrazol-5-yl)amino]-5-methoxy-1,2-benzoxazol-3-yl}-4-(2,2-dimethyl-5-oxopyrrolidin-1-yl)-2,6-dimethoxybenzene-1-sulfonamide] are 1.1 nM, 4.7 nM and 0.8 nM.
Turning to `COc1cc2c(NS(=O)(=O)c3c(OC)cc(C(=O)N4CC[C@H](F)C4)cc3OC)noc2cc1Nc1cc(C2CC2)n[nH]1` [Example 259, N-{6-[(3-cyclopropyl-1H-pyrazol-5-yl)amino]-5-methoxy-1,2-benzoxazol-3-yl}-4-[(3S)-3-fluoropyrrolidine-1-carbonyl]-2,6-dimethoxybenzene-1-sulfonamide], the inhibition constant Ki in test [1] (setting [11]) is 1.2 nM; in test [4] (read-out: KAT8 Ki (nM) (replicate)), 4990 nM; in test [5] (read-out: KAT5 Ki (nM) (replicate)), 85.1 nM; in test [2] (setting [12]), 6.7 nM.
